Measured values as given in patent EP4737448A1, “SARM1 ENZYME ACTIVITY INHIBITOR AND USE THEREOF” (Artivila (ShenZhen) Innovation Center, Ltd., priority 2023, dated 2025).

The compounds below were run against T1, SARM1 (Homo sapiens, UniProt Q6SZW1) (assay: In vitro biochemical assay for inhibiting SARM1 enzymatic activity (PC6 fluorescence, NAD substrate, NMN activator)). Conditions: 0.05 µg/mL SARM1, 50 µM NAD, 50 µM PC6, 50 µM NMN, 10 min pre-incubation, 30 min at room temperature.
T1 construct: the inventor produces full-length SARM1 for NADase activity assays and for screening; His (C); made in house; host or cells: HEK293 cells (transient transfection; digitonin lysate supernatant, not purified further)
T1 sequence (Q6SZW1 28-724): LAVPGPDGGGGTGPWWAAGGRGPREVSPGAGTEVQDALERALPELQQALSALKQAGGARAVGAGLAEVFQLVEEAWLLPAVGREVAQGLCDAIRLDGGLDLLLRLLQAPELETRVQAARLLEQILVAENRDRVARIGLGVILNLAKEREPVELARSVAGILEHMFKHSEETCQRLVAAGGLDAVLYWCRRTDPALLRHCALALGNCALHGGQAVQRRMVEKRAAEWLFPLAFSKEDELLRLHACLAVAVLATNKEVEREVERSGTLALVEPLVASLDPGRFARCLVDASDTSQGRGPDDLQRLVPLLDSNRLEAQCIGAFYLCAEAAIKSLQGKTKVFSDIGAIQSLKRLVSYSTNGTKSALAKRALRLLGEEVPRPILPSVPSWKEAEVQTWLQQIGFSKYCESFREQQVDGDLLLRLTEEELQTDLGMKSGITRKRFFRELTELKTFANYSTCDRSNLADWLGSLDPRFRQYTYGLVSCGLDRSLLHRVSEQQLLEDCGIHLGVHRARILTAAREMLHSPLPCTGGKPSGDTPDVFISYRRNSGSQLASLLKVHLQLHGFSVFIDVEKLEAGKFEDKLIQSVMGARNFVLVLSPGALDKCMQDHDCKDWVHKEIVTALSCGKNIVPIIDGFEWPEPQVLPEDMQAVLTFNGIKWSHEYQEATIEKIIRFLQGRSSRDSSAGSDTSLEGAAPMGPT
Method: Compounds to be tested were stocked at 200 µM or 10 mM (in DMSO), and further diluted to the desired compound concentration for the in vitro SARM1 enzyme assay and inhibitor screening.
The gene sequence encoding SARM1 protein was amplified by PCR and the PCR amplification product was constructed into the pcDNA3.1-HIS-C plasmid. This construction was completed by YouBio Biological Technology (Hunan, China).
HEK293 cells were cultured in DMEM in a 10 cm dish. The next day, cells were transfected with 15 µg of the pcDNA3.1-SARM1-HIS-C expression plasmid.
Cells were harvested 48 hours after the transfection. The SARM1 protein expressed in cells was obtained through cell lysis by digitonin, which was used for in vitro activity assay. The specific process was as follows:
Cells were digested and detached from the dish using trypsin-EDTA, centrifuged at 1000 rpm for 5 minutes, washed once with PBS, then resuspended in PBS containing 100 µM digitonin at 0.6 mL PBS for the cells in 10 cm dish and lysed for 5 min. The cells were added with trypan blue and observed under a microscope. More than 90% of the cells were confirmed to be lysed. The cells were centrifuged at 5000 rpm for 10 min, and the supernatant containing SARM1 protein was collected.
The compound was added into a solution of 50 mM Tris-HCl (pH 7.5) containing 0.05 µg/mL SARM1 to achieve a concentration of 200 µM, and then serially diluted 6 times, where each dilution was carried out by taking half of the previous solution and adding an equal volume of 50 mM Tris-HCl (pH 7.5) containing 0.05 µg/mL SARM1, yielding a set of final concentrations of the compound of either 200, 100, 50, 25, 12.5, 6.25 and 3.125 µM, or 200, 50, 12.5, 3.125, 0.78, 0.195 and 0.049 µM. No inhibitor was added in the control group. All mixtures were incubated at room temperature for 10 min.
Subsequently, 50 µM NAD, 50 µM PC6 as substrate and 50 µM NMN as activator were added to the SARM1 protein incubated with the inhibitor and reacted for 30 min at room temperature. Wherein, the aforementioned concentrations of each component represent their respective final concentrations in the reaction system
During the reaction, the fluorescence spectrum dynamics of PC6 was detected by a microplate reader, with excitation and emission wavelengths set at 390 nm and 520 nm, respectively. The activity of the protein was expressed as the reaction rate and half maximal inhibitory concentration was calculated. The higher the reaction rate, the stronger the protein activity, and the lower the inhibitory efficiency of the compound.
Dose-response curves for inhibition of SARM1 enzymatic activity for NAD by the compounds were plotted using the above method.

**Q.** With O=C1C(Cc2ccc(C(F)(F)F)cc2)CCN1c1ccc(-c2ccncc2)cc1 (stereo not drawn) [Compound 18, 3-(4-trifluoromethylbenzyl)-1-(4-(pyridin-4-yl)phenyl)pyrrolidin-2-one] as the compound, how does the IC50 read?
**A.** The IC50 was 1 to 10 µM.

**Q.** Which IC50 does the source give for N#Cc1ccc(CC2CCN(c3ccc(-c4ccncc4)nn3)C2=O)cc1 (stereo not drawn) [Compound 61] here?
**A.** The IC50 was less than 1 µM.

**Q.** How did the IC50 turn out when O=C1C(Cc2ccc(Cl)cc2)CCN1c1ccc(-c2ccncc2)cc1Cl (stereo not drawn) [Compound 11, 3-(4-chlorobenzyl)-1-(2-chloro-4-(pyridin-4-yl)phenyl)pyrrolidin-2-one] was run?
**A.** The IC50 was 10 to 30 µM.

**Q.** Which IC50 does the source give for COc1cc(-c2ccncc2)ccc1N1CCCC(Cc2ccc(Cl)cc2)C1=O (stereo not drawn) [Compound 39, 3-(4-chlorobenzyl)-1-(2-methoxy-4-(pyridin-4-yl)phenyl)piperidin-2-one] here?
**A.** Its IC50 is 1 to 10 µM.

**Q.** O=C1C(Cc2ccc(Cl)cc2)CCCN1c1ccc(-c2ccncc2)cc1 (stereo not drawn) [Compound 38, 3-(4-chlorobenzyl)-1-(4-(pyridin-4-yl)phenyl)piperidin-2-one] was tested. Which IC50 did it give?
**A.** Its IC50 is 1 to 10 µM.

**Q.** With O=C1C(Cc2ccc(Cl)cc2)CCON1c1ccc(-c2ccncc2)cc1 (stereo not drawn) [Compound 40, 4-(4-chlorobenzyl)-2-(4-(pyridin-4-yl)phenyl)-1,2-oxaza-3-one] as the compound, how does the IC50 read?
**A.** The IC50 was 1 to 10 µM.

**Q.** Which IC50 does the source give for Cc1cc(N2CCC(Cc3ccc(Cl)cc3)C2=O)ccc1-c1ccncc1 (stereo not drawn) [Compound 10, 3-(4-chlorobenzyl)-1-(3-methyl-4-(pyridin-4-yl)phenyl)pyrrolidin-2-one] here?
**A.** The IC50 was 1 to 10 µM.

**Q.** With O=C1C(Cc2ccc(Cl)c(F)c2)CCN1c1ccc(-c2ccncc2)cc1 (stereo not drawn) [Compound 16, 3-(4-chloro-3-fluorobenzyl)-1-(4-(pyridin-4-yl)phenyl)pyrrolidin-2-one] as the compound, how does the IC50 read?
**A.** Its IC50 is 1 to 10 µM.

**Q.** For NC(=O)c1cnccc1-c1ccc(N2CCC(Cc3ccc(Cl)cc3)C2=O)cc1 (stereo not drawn) [Compound 37], which IC50 is on record?
**A.** The IC50 was 1 to 10 µM.

**Q.** Which IC50 does the source give for O=C1C(Cc2ccc(Cl)cc2)=CCN1c1ccc(-c2ccncc2)cc1 [Compound 22] here?
**A.** Its IC50 is 1 to 10 µM.

**Q.** With O=C1C(Cc2ccc(Cl)cc2)CCN1c1ccc(-c2ccncc2F)cc1 (stereo not drawn) [Compound 35, 3-(4-chlorobenzyl)-1-(4-(3-fluoropyridin-4-yl)phenyl)pyrrolidin-2-one] as the compound, how does the IC50 read?
**A.** Its IC50 is less than 1 µM.

**Q.** How did the IC50 turn out when Cc1cnccc1-c1ccc(N2CCC(Cc3ccc(Cl)cc3)C2=O)nn1 (stereo not drawn) [Compound 74, 3-(4-chlorobenzyl)-1-(6-(3-methylpyridin-4-yl)pyridazin-3-yl)pyrrolidin-2-one] was run?
**A.** Its IC50 is less than 1 µM.

**Q.** For O=C(O)c1ccc(CC2CCN(c3ccc(-c4ccncc4)cc3)C2=O)cc1 (stereo not drawn) [Compound 87, 4-((2-oxo-1-(4-(pyridin-4-yl)phenyl)pyrrolidin-3-yl)methyl)benzoic acid], which IC50 is on record?
**A.** The IC50 was 10 to 30 µM.

**Q.** How did the IC50 turn out when O=C1C(CCc2ccc(Cl)cc2)CCN1c1ccc(-c2ccncc2)cc1 (stereo not drawn) [Compound 27, 3-(4-chlorophenethyl)-1-(4-(pyridin-4-yl)phenyl)pyrrolidin-2-one] was run?
**A.** Its IC50 is 10 to 30 µM.

**Q.** With O=C1C(Cc2ccc(Br)cc2)CCN1c1ccc(-c2ccncc2)cc1 (stereo not drawn) [Compound 31, 3-(4-bromobenzyl)-1-(4-(pyridin-4-yl)phenyl)pyrrolidin-2-one] as the compound, how does the IC50 read?
**A.** The IC50 was 10 to 30 µM.

**Q.** Which IC50 does the source give for S=C1C(Cc2ccc(Cl)cc2)CCN1c1ccc(-c2ccncc2)cc1 (stereo not drawn) [Compound 12] here?
**A.** Its IC50 is less than 1 µM.

**Q.** For O=C1C(Cc2cccc(Cl)c2)CCN1c1ccc(-c2ccncc2)cc1 (stereo not drawn) [Compound 26, 3-(3-chlorobenzyl)-1-(4-(pyridin-4-yl)phenyl)pyrrolidin-2-one], which IC50 is on record?
**A.** Its IC50 is 10 to 30 µM.

**Q.** O=C1C(Oc2ccc(Cl)cc2)CCN1c1ccc(-c2ccncc2)cc1 (stereo not drawn) [Compound 2, 3-(4-chlorophenoxy)-1-(4-(pyridin-4-yl)phenyl)pyrrolidin-2-one] was tested. Which IC50 did it give?
**A.** The IC50 was 10 to 30 µM.

**Q.** For C#Cc1ccc(CC2CCN(c3ccc(-c4ccncc4)cc3)C2=O)cc1 (stereo not drawn) [Compound 89, 3-(4-ethynylbenzyl)-1-(4-(pyridin-4-yl)phenyl)pyrrolidin-2-one], which IC50 is on record?
**A.** The IC50 was 10 to 30 µM.

**Q.** O=C1C(Cc2ccc(/C=C/Cl)cc2)CCN1c1ccc(-c2ccncc2)cc1 (stereo not drawn) [Compound 90, (E)-3-(4-(2-chloroethenyl)benzyl)-1-(4-(pyridin-4-yl)phenyl)pyrrolidin-2-one] was tested. Which IC50 did it give?
**A.** The IC50 was 1 to 10 µM.

**Q.** For COC(=O)c1ccc(CC2CCN(c3ccc(-c4ccncc4)cc3)C2=O)cc1 (stereo not drawn) [Compound 86, methyl 4-((2-oxo-1-(4-(pyridin-4-yl)phenyl)pyrrolidin-3-yl)methyl)benzoate], which IC50 is on record?
**A.** The IC50 was 1 to 10 µM.

**Q.** With O=C1C(Cc2cc(F)cc(F)c2)CCN1c1ccc(-c2ccncc2)nn1 (stereo not drawn) [Compound 68] as the compound, how does the IC50 read?
**A.** Its IC50 is less than 1 µM.

**Q.** With Cc1cnccc1-c1ccc(N2CCC(Cc3ccc(Cl)cc3)C2=O)cc1 (stereo not drawn) [Compound 14, 3-(4-chlorobenzyl)-1-(4-(3-methylpyridin-4-yl)phenyl)pyrrolidin-2-one] as the compound, how does the IC50 read?
**A.** The IC50 was less than 1 µM.

**Q.** For N#Cc1cnccc1-c1ccc(N2CCC(Cc3ccc(Cl)cc3)C2=O)cc1 (stereo not drawn) [Compound 36, 3-(4-chlorobenzyl)-1-(4-(3-cyanopyridin-4-yl)phenyl)pyrrolidin-2-one], which IC50 is on record?
**A.** The IC50 was 10 to 30 µM.

**Q.** CC(c1ccc(Cl)cc1)C1CCN(c2ccc(-c3ccncc3)cc2)C1=O (stereo not drawn) [Compound 4, 3-(1-(4-chlorophenyl)ethyl)-1-(4-(pyridin-4-yl)phenyl)pyrrolidin-2-one] was tested. Which IC50 did it give?
**A.** Its IC50 is 10 to 30 µM.

**Q.** N#Cc1ccc(CC2CCN(c3ccc(-c4ccncc4)cc3)C2=O)cc1 (stereo not drawn) [Compound 19, 3-(4-cyanobenzyl)-1-(4-(pyridin-4-yl)phenyl)pyrrolidin-2-one] was tested. Which IC50 did it give?
**A.** Its IC50 is 1 to 10 µM.

**Q.** How did the IC50 turn out when O=C1N(Cc2ccc(Cl)cc2)CCN1c1ccc(-c2ccncc2)cc1 [Compound 13, 1-(4-chlorobenzyl)-3-(4-(pyridin-4-yl)phenyl)imidazolin-2-one] was run?
**A.** The IC50 was less than 1 µM.

**Q.** For O=C1C(Cc2ccc([N+](=O)[O-])cc2)CCN1c1ccc(-c2ccncc2)cc1 (stereo not drawn) [Compound 32, 3-(4-nitrobenzyl)-1-(4-(pyridin-4-yl)phenyl)pyrrolidin-2-one], which IC50 is on record?
**A.** Its IC50 is 10 to 30 µM.

**Q.** How did the IC50 turn out when C=C(Cc1ccc(Cl)cc1)C(=O)Nc1ccc(-c2ccncc2)cc1 [Compound 5] was run?
**A.** Its IC50 is less than 1 µM.

**Q.** How did the IC50 turn out when O=C1C(Cc2ccc(Cl)cn2)CCN1c1ccc(-c2ccncc2)cc1 (stereo not drawn) [Compound 28] was run?
**A.** Its IC50 is 10 to 30 µM.

**Q.** How did the IC50 turn out when CN1CCN(Cc2ccc(CC3CCN(c4ccc(-c5ccncc5)cc4)C3=O)cc2)CC1 (stereo not drawn) [Compound 88, 3-(4-((4-methylpiperazin-1-yl)methyl)benzyl)-1-(4-(pyridin-4-yl)phenyl)pyrrolidin-2-one] was run?
**A.** Its IC50 is 10 to 30 µM.

**Q.** Which IC50 does the source give for O=C1C(Cc2ccc(Cl)cc2)CCN1c1cnc(-c2ccncc2)nc1 (stereo not drawn) [Compound 23, 3-(4-chlorobenzyl)-1-(2-(pyridin-4-yl)pyrimidin-5-yl)pyrrolidin-2-one] here?
**A.** Its IC50 is 10 to 30 µM.

**Q.** How did the IC50 turn out when O=C1/C(=C/c2ccc(Cl)cc2)CCN1c1ccc(-c2ccncc2)nn1 [Compound 78, (E)-3-(4-chlorobenzylidene)-1-(6-(pyridin-4-yl)pyridazin-3-yl)pyrrolidin-2-one] was run?
**A.** The IC50 was 10 to 30 µM.

**Q.** How did the IC50 turn out when “3-(4-chloro-2-fluorobenzyl)-1-(4-(pyridin-4-yl)phenyl)pyrrolidin-2-one [Compound 42]” was run?
**A.** Its IC50 is 1 to 10 µM.

**Q.** With O=C1CC(Cc2ccc(Cl)cc2)C(=O)N1c1ccc(-c2ccncc2)cc1 (stereo not drawn) [Compound 43, 3-(4-chlorobenzyl)-1-(4-(pyridin-4-yl)phenyl)pyrrolidin-2,5-one] as the compound, how does the IC50 read?
**A.** The IC50 was 1 to 10 µM.

**Q.** With CC(=O)c1ccc(CC2CCN(c3ccc(-c4ccncc4)cc3)C2=O)cc1 (stereo not drawn) [Compound 91, 3-(4-acetylbenzyl)-1-(4-(pyridin-4-yl)phenyl)pyrrolidin-2-one] as the compound, how does the IC50 read?
**A.** The IC50 was 10 to 30 µM.
